# Assay results published in the supplement of paper PMC10307832.
# Compound: CC1=C(C(=NN1)C)CC2=C(C3=C(S2)N(C(=O)N(C3=O)C)CC(C)C)C(=O)N4C[C@@H](CO4)O + C[C@]1(O)C[C@@H](c2nc(-c3ccc4ccc(-c5ccccc5)nc4c3)c3c(N)nccn32)C1 [Linsitinib] (partner 1 µM)
# Assay: relative viability (nuclei count vs DMSO), 5 days (fraction); higher = more cells survive
# Conditions: first compound 0.0025 µM
# Method in brief: (§1)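 Dosing by pin tool came one day after lung cancer cell lines were seeded in 1536-well plates, using either one drug or a fixed anchor-drug dose plus five library-drug doses (not always all listed) in √10 steps. After 5 days, nuclei were counted on 4× images. Relative viability is treated-well nuclei count divided by vehicle-well nuclei count, and values are medians of duplicate plates.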
row,Cell Line,relative viability
1,EBC-1,0.989
2,NCI-H1703,0.691
3,NCI-H1993,0.75
4,SW 1573,0.869
5,NCI-H838,1.02
6,LCLC-103H,1.07
7,NCI-H520,0.87
8,NCI-H2126,0.712
9,EMC-BAC-2,0.816
10,NCI-H2085,0.953
11,Calu-6,0.974
12,HCC-366,0.593
13,NCI-H1666,0.834
14,NCI-H596,1.02
15,LK-2,0.695
16,NCI-H2087,0.962
17,SK-MES-1,1.05
18,H3255,1.06
19,COR-L23,0.975
20,COR-L 105,1.1
21,IA-LM,0.686
22,LOU-NH91,0.958
23,NCI-H2405,0.972
24,HOP-62,1.01
25,HCC-44,0.855
26,A549,0.591
27,NCI-H441,0.59
28,NCI-H1395,0.965
29,NCI-H1299,1.03
30,NCI-H1793,0.726

# Same assay, conditions: first compound 0.007906 µM
row,Cell Line,relative viability
1,NCI-H727,0.324
2,EBC-1,0.847
3,NCI-H1703,0.253
4,NCI-H1993,0.678
5,SW 1573,0.905
6,NCI-H838,1.08
7,LCLC-103H,1.15
8,NCI-H520,0.902
9,NCI-H2126,0.789
10,EMC-BAC-2,0.892
11,NCI-H2085,0.956
12,Calu-6,0.933
13,HCC-366,0.771
14,NCI-H1666,0.839
15,NCI-H596,1.14
16,LK-2,0.674

row,Cell Line,relative viability
1,NCI-H2087,1.08
2,SK-MES-1,1.03
3,H3255,0.881
4,COR-L23,0.859
5,COR-L 105,0.943
6,IA-LM,0.509
7,LOU-NH91,0.843
8,NCI-H2405,0.902
9,HOP-62,0.967
10,HCC-44,0.713
11,A549,0.624
12,NCI-H441,0.491
13,NCI-H1395,0.902
14,NCI-H1299,0.875
15,NCI-H1793,0.868

# Same assay, conditions: first compound 0.025 µM
row,Cell Line,relative viability
1,NCI-H727,0.386
2,EBC-1,0.805
3,NCI-H1703,0.638
4,NCI-H1993,0.855
5,SW 1573,0.869
6,NCI-H838,0.987
7,LCLC-103H,1.18
8,NCI-H520,0.528
9,NCI-H2126,0.673
10,EMC-BAC-2,0.821
11,NCI-H2085,0.814
12,Calu-6,0.877
13,HCC-366,0.59
14,NCI-H1666,1.06
15,NCI-H596,1.08
16,LK-2,0.495
17,NCI-H2087,1.02
18,SK-MES-1,1.04
19,H3255,0.909
20,COR-L23,0.601
21,COR-L 105,0.853
22,IA-LM,0.552
23,LOU-NH91,1.06
24,HOP-62,0.889
25,HCC-44,0.629
26,A549,0.574
27,NCI-H441,0.493
28,NCI-H1395,0.917
29,NCI-H1299,0.926
30,NCI-H1793,0.834

# Same assay, conditions: first compound 0.07906 µM
row,Cell Line,relative viability
1,NCI-H727,0.259
2,EBC-1,1.05
3,NCI-H1703,0.448
4,NCI-H1993,0.781
5,SW 1573,0.804
6,NCI-H838,1.02
7,LCLC-103H,0.835
8,NCI-H520,0.409
9,NCI-H2126,0.72
10,EMC-BAC-2,0.826
11,NCI-H2085,0.844
12,Calu-6,0.907
13,HCC-366,0.62
14,NCI-H1666,0.884
15,NCI-H596,1.13
16,LK-2,0.566

row,Cell Line,relative viability
1,NCI-H2087,1.02
2,SK-MES-1,1.15
3,H3255,1.01
4,COR-L23,0.788
5,COR-L 105,0.961
6,IA-LM,0.525
7,LOU-NH91,1.12
8,NCI-H2405,0.881
9,HOP-62,1
10,HCC-44,0.684
11,A549,0.72
12,NCI-H441,0.53
13,NCI-H1395,0.988
14,NCI-H1299,1
15,NCI-H1793,0.66

# Same assay, conditions: first compound 0.25 µM
row,Cell Line,relative viability
1,NCI-H727,0.247
2,EBC-1,1.08
3,NCI-H1703,0.804
4,NCI-H1993,0.74
5,SW 1573,0.782
6,NCI-H838,1.04
7,LCLC-103H,1.12
8,NCI-H520,0.552
9,NCI-H2126,0.67
10,EMC-BAC-2,0.881
11,NCI-H2085,0.77
12,Calu-6,0.952
13,HCC-366,0.712
14,NCI-H1666,0.847
15,NCI-H596,1.13
16,LK-2,0.815

row,Cell Line,relative viability
1,NCI-H2087,0.928
2,SK-MES-1,1.14
3,H3255,1.11
4,COR-L23,0.713
5,COR-L 105,0.95
6,IA-LM,0.94
7,LOU-NH91,1.02
8,NCI-H2405,0.73
9,HOP-62,0.817
10,HCC-44,0.74
11,A549,0.649
12,NCI-H441,0.615
13,NCI-H1395,0.89
14,NCI-H1299,1.06
15,NCI-H1793,0.926

# Compound: Cc1ccccc1C(C(=O)NC1CCCCC1)N(C(=O)Cn1ccnc1C)c1cccc(F)c1 [IDH-C35] + COc1cccc2cc(-c3nc([C@H]4CC[C@H](C(=O)O)CC4)n4ncnc(N)c34)[nH]c12 [OSI-027] (partner 0.5 µM)
# Assay: as above
# Conditions: first compound 0.08 µM
# Method in brief: as §1
row,Cell Line,relative viability
1,NCI-H522,0.784
2,NCI-H1623,0.45
3,NCI-H727,0.805
4,NCI-H1650,0.667
